Values joined by “and” are separate entries in the source; they are usually repeats but may differ in a detail not shown here. Identical values can stand only once.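 Interpolation was linear, between the two tested concentrations surrounding the appropriate level; five concentrations were tested over 48 hours in 96-well plates. GI50: concentration for 50% inhibition of growth. TGI is the concentration that stops growth completely.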
Key:
Assay in all cases: NCI tumour cell line growth inhibition, 48 h
[1] = test system: NCI-H23 lung
[2] = test system: SF-295 CNS
[3] = test system: OVCAR-5 ovarian
[4] = test system: UACC-257 melanoma
[5] = test system: CCRF-CEM leukemia
[6] = test system: OVCAR-3 ovarian
[7] = test system: LOX IMVI melanoma
[8] = test system: MDA-MB-231 breast
[9] = test system: NCI/ADR-RES ovarian
[10] = test system: HS 578T breast

Structure (SMILES)	TGI [1]	TGI [2]	TGI [3]	TGI [4]	TGI [5]	TGI [6]	TGI [7]	GI50 [8]	TGI [8]	GI50 [1]	GI50 [2]	GI50 [9]	TGI [9]	GI50 [3]	GI50 [4]	GI50 [10]	TGI [10]	GI50 [5]	GI50 [6]	GI50 [7]
CN(C)CCNC(=O)c1cccc2nc3ccc4cccnc4c3nc12	1.35 µM	3.94 µM	2.67 µM	1.63 µM	13.1 µM	4.33 µM	1.51 µM													
O=C1OCC(c2ccc(O)cc2)=C1c1cc(O)c(O)c(O)c1	> 100 µM	50.4 µM	> 100 µM	> 100 µM	> 100 µM	82.3 µM	> 100 µM	> 100000 nM	> 100 µM	> 100000 nM	26400 nM	25.2 µM	62.8 µM	55.6 µM	> 100000 nM	> 100000 nM	> 100 µM	51700 nM	27900 nM	32600 nM
COC1=CC(=O)C(Br)=CC1=O	40.8 µM			31.1 µM	8.84 µM		34.3 µM													
COC1=CC(=O)C2C(C1=O)[C@@H]1c3ccccc3OC(C)(C)[C@H]21 (stereo not given in full)	36.9 µM	> 100 µM	> 100 µM	> 100 µM	65.1 µM	28.3 µM	27.2 µM													
Cc1cc(C)nc(NS(=O)(=O)c2ccc(Nc3c4ccccc4nc4c(C(=O)Nc5ccc(S(=O)(=O)Nc6cc(C)on6)cc5)ccc(Cl)c34)cc2)n1	59.7 µM	44.8 µM	44.6 µM	91.3 µM	71 µM	31.3 µM	> 100 µM													
COc1cccc(-n2ncc3c(N/N=C/c4ccc(C)cc4)ncnc32)c1	> 25 µM	> 25 µM	> 25 µM	> 25 µM	> 25 µM	> 25 µM	> 25 µM	> 25000 nM	> 25 µM	> 25000 nM	> 25000 nM	> 25 µM	> 25 µM	> 25 µM	> 21700 nM	> 17400 nM	> 25 µM	> 25000 nM	> 25000 nM	> 25000 nM
COc1ccc2c3c(c(C(=O)O)oc13)CCC2	> 100 µM	> 100 µM	> 100 µM	> 100 µM	> 100 µM	> 100 µM	> 100 µM													
CC(=Nc1ccccc1)C1=C(O)C(Cc2cccc(F)c2)NC1=O (stereo not given)	> 100 µM	0.184 µM	> 100 µM		> 100 µM		> 100 µM	178 nM	1.93 µM	101 nM	31.2 nM	0.0348 µM	0.186 µM	0.253 µM		50.1 nM	> 100 µM	58.1 nM		66.7 nM
CCCN(CCC)CCc1cc(C(C)=O)n(S(=O)(=O)c2ccc(C)cc2)c1	> 100 µM	> 100 µM	> 100 µM	> 100 µM	> 100 µM	> 100 µM														
O=C1NC(=O)C(=Cc2c3ccccc3cc3ccccc23)C(=O)N1	> 100 µM				> 100 µM		> 100 µM													
O=S(=O)(c1ccccc1)c1nccs1	> 100 µM	> 100 µM	> 100 µM	> 100 µM		> 100 µM	> 100 µM													
COc1ccc(-c2nsc3c2NC(=O)CC3c2ccc3c(c2)OCCO3)cc1 (stereo not given)	> 100 µM	> 33.2 µM	> 100 µM	> 100 µM	> 100 µM	1.15 µM	> 100 µM	1590 nM	> 100 µM	1380 nM	434 nM			10.2 µM	981 nM	398 nM	> 100 µM	406 nM	327 nM	601 nM
COc1cc2c(c(O)c1C)C(=O)CC(c1ccccc1)O2 (stereo not given)	> 100 µM	> 10 µM	> 100 µM	> 100 µM	> 10 µM	> 100 µM	> 10 µM													
O=C1NC(=O)[C@@]2(CC[C@@H](O)C2)c2ccncc21	> 100 µM		> 100 µM	> 100 µM	> 100 µM		> 100 µM		> 100 µM				> 100 µM				> 100 µM			
Cc1cc(Br)cc(C)c1NC(=O)C(=O)C(C(=O)c1ccncc1)C1OC(=O)c2ccccc21 (stereo not given)	> 100 µM		> 100 µM	> 100 µM	> 100 µM	> 100 µM	> 100 µM													
COc1cccc2c1C(=O)c1c(O)c3c(c(O)c1C2=O)C[C@@](O)(C(C)=O)C[C@@H]3OC1CC([N+]([O-])(Cc2ccccc2)Cc2ccccc2)C(O)C(C)O1 (stereo not given in full)	2.58 µM	2.88 µM	3.22 µM	3.17 µM		3.28 µM	2.41 µM													
O=C(O)C(Br)C(Br)C(=O)O (stereo not given)	> 100 µM	> 100 µM	> 100 µM	> 100 µM		> 100 µM	> 100 µM		> 100 µM				> 100 µM				> 100 µM			
O=c1nc(NC(c2ccccc2)(c2ccccc2)c2ccccc2)ccn1CCCl	56 µM	42.9 µM	82.4 µM			27.6 µM	31.8 µM													
Cc1c(NC(=O)CCl)c(=O)oc2c(C)c3occc(=O)c3cc12		25.2 µM	32.4 µM	34 µM	41.8 µM								60.8 µM				59.6 µM			
CC(N)Cc1ccc(Cl)cc1 (stereo not given)	> 100 µM	> 100 µM	> 100 µM	> 100 µM	> 100 µM	> 100 µM	> 100 µM													
CCO/C(CCn1[nH]c(=O)c(Cl)c(Cl)c1=O)=N\NC(=O)C(=O)NN	> 100 µM	> 100 µM	> 100 µM	> 100 µM	> 100 µM	> 100 µM	> 100 µM													
O=c1cc(-c2ccccc2)oc2ccc(OC/C(=N/O)c3ccc(F)cc3)cc12	38.4 µM	8.12 µM	> 50 µM	38.2 µM	17.1 µM	7.2 µM	12.3 µM	6160 nM	27.2 µM	5430 nM	1790 nM	2.97 µM	12.8 µM	16.4 µM	9770 nM			3240 nM	1670 nM	5460 nM

Structure (SMILES)	TGI [1]	TGI [2]	TGI [3]	TGI [4]	TGI [5]	TGI [6]	TGI [7]	GI50 [8]	TGI [8]	GI50 [1]	GI50 [2]	GI50 [9]	TGI [9]	GI50 [3]	GI50 [4]	GI50 [10]	TGI [10]	GI50 [5]	GI50 [6]	GI50 [7]
CCC[CH2][Sn]([CH2]CCC)([CH2]CCC)[O]C(=O)C(OC(C)=O)c1ccccc1 (stereo not given)	0.262 µM	0.301 µM	0.222 µM	0.284 µM		0.274 µM	0.23 µM			131 nM	163 nM			0.086 µM	149 nM				137 nM	107 nM
O=C1CSC(c2ccc(-c3nc4ccccc4[nH]3)cc2)=N1	> 50 µM	> 50 µM	> 50 µM	> 50 µM		> 50 µM	> 50 µM	> 50000 nM	> 50 µM	47400 nM	29500 nM	> 50 µM	> 50 µM	> 50 µM	20300 nM	25100 nM	> 50 µM		33800 nM	15700 nM
CCCCCCCCCCCC[N+](C)(C)Cc1ccccc1	10.2 µM	12.2 µM	13.5 µM	4.25 µM	5.43 µM	4.02 µM		1620 nM	3.81 µM	2500 nM	2820 nM	41.9 µM	> 100 µM	2.86 µM	1820 nM	1950 nM	5.96 µM	1880 nM	1710 nM	
Cc1ccc(NC(=O)C(=O)C(C(=O)c2ccc3ccccc3c2)C2OC(=O)c3ccccc32)c(C)c1 (stereo not given)	37.2 µM		36.5 µM	41.4 µM	78.1 µM	31.5 µM	32.2 µM													
C/C(=N\NC(=O)CC#N)C(CN1CCCCC1)C(c1ccccc1)c1c(O)c2ccccc2oc1=O (stereo not given)	> 100 µM		> 100 µM	> 100 µM	73.5 µM	> 100 µM	40.1 µM		> 100 µM				> 100 µM				> 100 µM			
COC(NC(N)=O)C(=O)O (stereo not given)	> 100 µM	> 100 µM	> 100 µM	> 100 µM	> 100 µM	> 100 µM			> 100 µM				> 100 µM				> 100 µM			
CCOP(=O)(OCC)/C(C#N)=C\c1ccsc1	> 100 µM	> 100 µM	> 100 µM	> 100 µM		> 100 µM	> 100 µM													
COc1cc2c3c(n(CCCCNC(=O)OC(C)(C)C)c(=O)c2cc1OC)-c1cc2c(cc1C3=O)OCO2	> 100 µM	> 100 µM	> 100 µM	> 100 µM		65.9 µM	> 100 µM	> 100000 nM	> 100 µM	> 100000 nM	16100 nM	> 100 µM	> 100 µM	> 100 µM	> 100000 nM	59000 nM	> 100 µM		225 nM	> 100000 nM
CC(C)=O.O=C([O-])C(F)(F)F.O=C([O-])C(F)(F)F.O=C([O-])C(F)(F)F.O=C([O-])C(F)(F)F.[Rh+2].[Rh+2]	> 100 µM	> 100 µM	> 100 µM	> 100 µM	> 100 µM	> 100 µM	> 100 µM			46700 nM	> 100000 nM			> 100 µM	> 100000 nM			35500 nM	> 100000 nM	53300 nM
S=c1nc(C(c2ccccc2)c2ccccc2)[nH][nH]1	> 100 µM	> 100 µM	> 100 µM	> 100 µM	> 100 µM	> 100 µM	> 100 µM													
CC1(C)OC2CC3COC(=O)C3CC2O1 (stereo not given)	> 100 µM	> 100 µM	> 100 µM	> 100 µM	> 100 µM	> 100 µM	> 100 µM													
COc1cc(O)c(C(=O)CC(C)=O)c(OC)c1	> 100 µM	> 100 µM	> 100 µM	> 100 µM	> 100 µM	> 100 µM	> 100 µM													
CC(C)(CN1CCOCC1)C(=O)/C=C/c1ccc(/C=C/C(=O)C(C)(C)CN2CCOCC2)cc1		4.63 µM	3.26 µM		4.77 µM	2.46 µM	1.54 µM													
Cn1cnc([N+](=O)[O-])c1Sc1nnnn1C	34.7 µM	> 100 µM	45.2 µM	29.8 µM	25 µM	29.4 µM	26.6 µM													
C#CCN(N=O)C(=O)NCCCCC(NC(=O)OCc1ccccc1)C(=O)OCc1ccccc1 (stereo not given)	> 100 µM	> 100 µM	> 100 µM	> 100 µM	45.1 µM	53.9 µM	28 µM													
O=C(N/C(=C\c1c(O)ccc2ccccc12)c1nc2ccccc2[nH]1)c1ccccc1	> 100 µM		> 100 µM	> 100 µM	> 100 µM	> 100 µM	> 100 µM													
CSC(=Nc1ccccc1Cl)NC(=O)c1ccc(Br)cc1	> 100 µM	> 100 µM	> 100 µM	> 100 µM		> 100 µM	> 100 µM													
COC1CC(C)C(OC)c2cc(O)cc(c2O)NC(=O)/C(C)=C/C=C\C(C)C(OC(N)=O)/C(C)=C\C(C)C1OC (stereo not given)	5.59 µM and 4.37 µM	9.09 µM and 8.02 µM	20.5 µM and 11 µM	10.3 µM and 10.5 µM		5.31 µM and 7.4 µM	1.74 µM and 6.91 µM	291 nM and 243 nM and 1160 nM	10.3 µM and 8.54 µM	169 nM and 179 nM	665 nM			0.549 µM	561 nM and 693 nM	511 nM and 758 nM	20.8 µM and 6.92 µM	35.6 nM and 148 nM	938 nM and 552 nM and 186 nM	165 nM and 255 nM
CCN(CCCl)CCCCCNc1c2ccccc2nc2ccc(OC)cc12	1.55 µM	9.68 µM	5.39 µM	10.8 µM	2.78 µM	7.28 µM	1.09 µM													
NCCOCn1cc(Cc2cccc(OCc3ccccc3)c2)c(=O)[nH]c1=O	> 100 µM	> 100 µM			> 100 µM	> 100 µM	> 100 µM													
CCN(CC)CCCOc1ccc2ncnc(Nc3ccc(Oc4cccc(C(F)(F)F)c4)c(Cl)c3)c2c1	3.05 µM	3.17 µM	2.99 µM		14.2 µM	2.84 µM	3.06 µM	1790 nM	3.24 µM	1560 nM	1730 nM			1.56 µM				2260 nM	1450 nM	1630 nM

— PubChem BioAssay (NCI)
